# The source made the active and inactive calls.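 How the source made its calls: active means mean IC50 below 20 µM in each of the two panels, so potent in both; inactive means the rest.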
# Target: Neuropilin-1 (Homo sapiens) (UniProt O14786)
# Experiment: blockers of CendR peptide binding to NRP-1 – biochemical, FP and AlphaScreen panel, dose response (AID 651650)
# Details: NRP-1 b1b2 / RPARPAR peptide binding, FP or AlphaScreen; AlphaScreen, mean of runs
# Neuropilin-1 (Homo sapiens), sequence (O14786 whole entry, looked up): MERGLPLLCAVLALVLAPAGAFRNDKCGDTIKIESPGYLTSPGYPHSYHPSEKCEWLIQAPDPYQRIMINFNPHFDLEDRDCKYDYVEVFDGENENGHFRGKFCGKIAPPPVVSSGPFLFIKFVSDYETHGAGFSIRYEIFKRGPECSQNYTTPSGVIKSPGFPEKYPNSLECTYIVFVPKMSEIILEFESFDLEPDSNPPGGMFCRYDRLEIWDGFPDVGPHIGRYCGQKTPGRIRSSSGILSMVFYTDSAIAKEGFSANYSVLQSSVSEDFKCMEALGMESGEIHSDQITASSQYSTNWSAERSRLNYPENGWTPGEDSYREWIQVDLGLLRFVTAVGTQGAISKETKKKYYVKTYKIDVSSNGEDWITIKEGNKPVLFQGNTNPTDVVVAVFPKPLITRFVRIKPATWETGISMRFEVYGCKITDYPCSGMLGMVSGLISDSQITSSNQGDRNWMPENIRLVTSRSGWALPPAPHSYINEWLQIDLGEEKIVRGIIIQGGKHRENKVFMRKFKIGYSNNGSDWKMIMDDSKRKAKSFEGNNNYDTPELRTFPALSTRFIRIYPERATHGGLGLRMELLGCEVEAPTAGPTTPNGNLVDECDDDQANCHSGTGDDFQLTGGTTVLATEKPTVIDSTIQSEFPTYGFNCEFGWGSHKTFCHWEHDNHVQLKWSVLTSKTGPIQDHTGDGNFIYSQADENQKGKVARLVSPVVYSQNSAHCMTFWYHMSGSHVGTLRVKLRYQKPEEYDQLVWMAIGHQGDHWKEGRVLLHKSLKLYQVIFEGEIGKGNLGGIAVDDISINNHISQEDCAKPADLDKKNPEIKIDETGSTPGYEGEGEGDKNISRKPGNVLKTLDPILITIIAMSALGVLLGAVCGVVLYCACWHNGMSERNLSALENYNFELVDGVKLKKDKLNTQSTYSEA
row,IC50,Structure (SMILES)
1,inactive,CCc1cccc(NC(=O)CCc2c(C)nn(-c3ccc(N4CCOCC4)nn3)c2C)c1
2,> 100 µM (inactive),CCOc1ccccc1C1CC(=O)NC2=C1C(=O)CC(C)(C)C2 (stereo not given)
3,> 100 µM (inactive),COc1ccc(CCN=C2SCC(=O)N2Cc2ccccc2)cc1OC
4,> 100 µM (inactive),COc1ccc2c(c1)N(C)/C(=C1/SC(=NCc3ccccc3)N(c3ccccc3)C1=O)S2
5,inactive,Cc1onc(-c2ccc(Cl)cc2Cl)c1-c1csc(COc2ccccc2)n1
6,> 100 µM (inactive),O=C(O)CCSc1nnc(COc2cccc3cccnc23)n1-c1ccccc1
7,> 100 µM (inactive),Cc1cc(C)cc(N(CCC(=O)O)S(=O)(=O)c2ccc3ccccc3c2)c1
8,> 100 µM (inactive),Cc1ccc(Nc2c(-c3ccccc3O)nc3ncccn23)cc1
9,> 100 µM (inactive),CC(C)c1ccc(S(=O)(=O)N2CCN(C(=O)CN3C(=O)c4ccccc4C3=O)CC2)cc1
10,> 100 µM (inactive),O=C(CCn1c(=O)c2cccn2c2cccnc21)NCc1cccc(Cl)c1
11,inactive,O=C(COC(=O)C1CC(=O)N(Cc2ccccc2)C1)Nc1ccccc1F (stereo not given)
12,> 100 µM (inactive),CCOC(=O)c1ccc(N2CCN(C(=O)c3ccccc3)CC2)c(NC(=O)c2ccco2)c1
13,> 100 µM (inactive),Clc1nc(-c2ccccn2)nc2scc(-c3ccccc3)c12
14,> 100 µM (inactive),C[C@@H]1CC=C[C@H]2[C@H]1C(=O)N(Cc1ccccc1)[C@H]2c1ccc(/C=C/c2ccccc2)cc1F
15,> 100 µM (inactive),CCOC(=O)c1c2ccc(OCC(=O)NN)cc2n2ccccc12
16,inactive,CC(C)(C)c1nc(SCC(=O)NCc2ccco2)c2ccccc2n1
17,6.67 µM,Cc1ccccc1NC(=S)NC(=O)COc1ccccc1C
18,> 100 µM (inactive),COc1cc(C(=O)NCc2ccccc2)cc(Br)c1OC
19,> 100 µM (inactive),CC(C)OC(=O)CSc1nnc(-c2ccccn2)n1-c1ccccc1
20,> 100 µM (inactive),O=c1oc(Nc2ccccc2F)nc2ccccc12

# Continued, molecule first:
row,Structure (SMILES),IC50
1,COC(=O)C[C@H]1c2cc(F)ccc2S(=O)(=O)N1C(C)C,> 100 µM (inactive)
2,CC(=O)N1CCSc2ccc(S(=O)(=O)Nc3ccc(C)cc3)cc21,> 100 µM (inactive)
3,CCOC(=O)c1ccc2[nH]c(C)c(C)c2c1,> 100 µM (inactive)
4,Cc1ccc2c(c1)C(c1ccncc1)=NNC(c1ccc(F)cc1)=N2,> 100 µM (inactive)
5,COc1ccc(-c2noc(CN(C(=O)c3ccc4c(c3)OCO4)C(C)C)n2)cc1,> 100 µM (inactive)
6,CCOC(=O)c1c(=O)n(O)c2ccc(OC)cc2[n+]1[O-],> 100 µM (inactive)
7,O=C1CCCN1CCCNC(=S)Nc1ccc(Cl)cc1Cl,> 100 µM (inactive)
8,Nc1ccc(C(=O)Nc2ccc(Nc3ccncc3)cc2)c([N+](=O)[O-])c1,2.27 µM
9,OCC[C@H]1C[C@H](O)[C@@H](O)[C@]2(CCCCO2)O1,> 100 µM (inactive)
10,Cc1ccc(C(=O)N2CCN(C34CC5CC(CC(C5)C3)C4)CC2)o1,inactive
11,OCC1OC(n2cnc3c(/C=C(\O)c4ccccc4)ncnc32)C(O)C1O (stereo not given),> 100 µM (inactive)
12,O=C(COc1ccc(S(=O)(=O)N2CCCC2)cc1)Nc1ccc2c(c1)OCCO2,> 100 µM (inactive)
13,CCN(CC(=O)NCc1cccs1)S(=O)(=O)c1ccc(C(C)C)cc1,> 100 µM (inactive)
14,C=CCOc1c(CNc2ncn[nH]2)cccc1OCC,> 100 µM (inactive)
15,CC(Nc1nc(-c2ccc(F)cc2)cs1)c1nc2cc(C(F)(F)F)ccc2n1CCOCCO (stereo not given),> 100 µM (inactive)
16,Cc1onc(-c2ccccc2)c1C(=O)N1CCCC1,> 100 µM (inactive)
17,c1ccc(OCCCN2CCCC2)cc1,> 100 µM (inactive)
18,O=C(NNc1ncnc2c1cnn2-c1ccc(F)cc1)c1ccco1,> 100 µM (inactive)
19,CC(=O)NC(c1cccc(F)c1)c1nc(-c2cccc(C(F)(F)F)c2)cs1 (stereo not given),> 100 µM (inactive)
20,O=C(NC1CC1)c1ccc(COc2ccc(F)cc2)o1,> 100 µM (inactive)
21,C=CCN(CC=C)C(=O)C1CC(=O)N(c2ccc(Br)cc2)C1 (stereo not given),> 100 µM (inactive)
22,CN(C(=O)COC(=O)c1cnc(Cl)c(Cl)c1)C1CCCCC1,> 100 µM (inactive)
23,COc1ccc(Cl)cc1S(=O)(=O)N1CCN(CC(=O)C(C)(C)C)CC1,> 100 µM (inactive)
24,Cc1c(CC(=O)O)c(=O)oc2cc(OCc3ccc(F)cc3Cl)ccc12,> 100 µM (inactive)
25,CN(C(=O)COC(=O)c1nc(-c2ccccc2)n(-c2ccccc2)n1)C1CCS(=O)(=O)C1 (stereo not given),> 100 µM (inactive)
26,CCC(=O)Nc1cc2c3c(c1)CCC(=O)N3CCC2,13.8 µM

# Same assay, conditions: NRP-1 b1b2 / RPARPAR peptide binding, FP or AlphaScreen; AlphaScreen, run 1; individual panel run IC50
row,IC50,Structure (SMILES)
1,40.2 µM,CCc1cccc(NC(=O)CCc2c(C)nn(-c3ccc(N4CCOCC4)nn3)c2C)c1
2,> 100 µM,CCOc1ccccc1C1CC(=O)NC2=C1C(=O)CC(C)(C)C2 (stereo not given)
3,> 100 µM,COc1ccc(CCN=C2SCC(=O)N2Cc2ccccc2)cc1OC
4,> 100 µM,COc1ccc2c(c1)N(C)/C(=C1/SC(=NCc3ccccc3)N(c3ccccc3)C1=O)S2
5,59.1 µM,Cc1onc(-c2ccc(Cl)cc2Cl)c1-c1csc(COc2ccccc2)n1
6,> 100 µM,O=C(O)CCSc1nnc(COc2cccc3cccnc23)n1-c1ccccc1
7,> 100 µM,Cc1cc(C)cc(N(CCC(=O)O)S(=O)(=O)c2ccc3ccccc3c2)c1
8,> 100 µM,Cc1ccc(Nc2c(-c3ccccc3O)nc3ncccn23)cc1
9,> 100 µM,CC(C)c1ccc(S(=O)(=O)N2CCN(C(=O)CN3C(=O)c4ccccc4C3=O)CC2)cc1
10,> 100 µM,O=C(CCn1c(=O)c2cccn2c2cccnc21)NCc1cccc(Cl)c1
11,44.6 µM,O=C(COC(=O)C1CC(=O)N(Cc2ccccc2)C1)Nc1ccccc1F (stereo not given)
12,> 100 µM,CCOC(=O)c1ccc(N2CCN(C(=O)c3ccccc3)CC2)c(NC(=O)c2ccco2)c1
13,> 100 µM,Clc1nc(-c2ccccn2)nc2scc(-c3ccccc3)c12
14,> 100 µM,C[C@@H]1CC=C[C@H]2[C@H]1C(=O)N(Cc1ccccc1)[C@H]2c1ccc(/C=C/c2ccccc2)cc1F
15,> 100 µM,CCOC(=O)c1c2ccc(OCC(=O)NN)cc2n2ccccc12
16,28 µM,CC(C)(C)c1nc(SCC(=O)NCc2ccco2)c2ccccc2n1
17,6.67 µM,Cc1ccccc1NC(=S)NC(=O)COc1ccccc1C
18,> 100 µM,COc1cc(C(=O)NCc2ccccc2)cc(Br)c1OC
19,> 100 µM,CC(C)OC(=O)CSc1nnc(-c2ccccn2)n1-c1ccccc1
20,> 100 µM,O=c1oc(Nc2ccccc2F)nc2ccccc12

# Second part, the molecule before the results:
row,Structure (SMILES),IC50
1,COC(=O)C[C@H]1c2cc(F)ccc2S(=O)(=O)N1C(C)C,> 100 µM
2,CC(=O)N1CCSc2ccc(S(=O)(=O)Nc3ccc(C)cc3)cc21,> 100 µM
3,CCOC(=O)c1ccc2[nH]c(C)c(C)c2c1,> 100 µM
4,Cc1ccc2c(c1)C(c1ccncc1)=NNC(c1ccc(F)cc1)=N2,> 100 µM
5,COc1ccc(-c2noc(CN(C(=O)c3ccc4c(c3)OCO4)C(C)C)n2)cc1,> 100 µM
6,CCOC(=O)c1c(=O)n(O)c2ccc(OC)cc2[n+]1[O-],> 100 µM
7,O=C1CCCN1CCCNC(=S)Nc1ccc(Cl)cc1Cl,> 100 µM
8,Nc1ccc(C(=O)Nc2ccc(Nc3ccncc3)cc2)c([N+](=O)[O-])c1,2.27 µM
9,OCC[C@H]1C[C@H](O)[C@@H](O)[C@]2(CCCCO2)O1,> 100 µM
10,Cc1ccc(C(=O)N2CCN(C34CC5CC(CC(C5)C3)C4)CC2)o1,75.4 µM
11,OCC1OC(n2cnc3c(/C=C(\O)c4ccccc4)ncnc32)C(O)C1O (stereo not given),> 100 µM
12,O=C(COc1ccc(S(=O)(=O)N2CCCC2)cc1)Nc1ccc2c(c1)OCCO2,> 100 µM
13,CCN(CC(=O)NCc1cccs1)S(=O)(=O)c1ccc(C(C)C)cc1,> 100 µM
14,C=CCOc1c(CNc2ncn[nH]2)cccc1OCC,> 100 µM
15,CC(Nc1nc(-c2ccc(F)cc2)cs1)c1nc2cc(C(F)(F)F)ccc2n1CCOCCO (stereo not given),> 100 µM
16,Cc1onc(-c2ccccc2)c1C(=O)N1CCCC1,> 100 µM
17,c1ccc(OCCCN2CCCC2)cc1,> 100 µM
18,O=C(NNc1ncnc2c1cnn2-c1ccc(F)cc1)c1ccco1,> 100 µM
19,CC(=O)NC(c1cccc(F)c1)c1nc(-c2cccc(C(F)(F)F)c2)cs1 (stereo not given),> 100 µM
20,O=C(NC1CC1)c1ccc(COc2ccc(F)cc2)o1,> 100 µM
21,C=CCN(CC=C)C(=O)C1CC(=O)N(c2ccc(Br)cc2)C1 (stereo not given),> 100 µM
22,CN(C(=O)COC(=O)c1cnc(Cl)c(Cl)c1)C1CCCCC1,> 100 µM
23,COc1ccc(Cl)cc1S(=O)(=O)N1CCN(CC(=O)C(C)(C)C)CC1,> 100 µM
24,Cc1c(CC(=O)O)c(=O)oc2cc(OCc3ccc(F)cc3Cl)ccc12,> 100 µM
25,CN(C(=O)COC(=O)c1nc(-c2ccccc2)n(-c2ccccc2)n1)C1CCS(=O)(=O)C1 (stereo not given),> 100 µM
26,CCC(=O)Nc1cc2c3c(c1)CCC(=O)N3CCC2,13.8 µM

# Same assay, conditions: NRP-1 b1b2 / RPARPAR peptide binding, FP or AlphaScreen; FP, mean of runs
row,IC50,Structure (SMILES)
1,> 95 µM (inactive),CCc1cccc(NC(=O)CCc2c(C)nn(-c3ccc(N4CCOCC4)nn3)c2C)c1
2,> 95 µM (inactive),CCOc1ccccc1C1CC(=O)NC2=C1C(=O)CC(C)(C)C2 (stereo not given)
3,> 95 µM (inactive),COc1ccc(CCN=C2SCC(=O)N2Cc2ccccc2)cc1OC
4,> 95 µM (inactive),COc1ccc2c(c1)N(C)/C(=C1/SC(=NCc3ccccc3)N(c3ccccc3)C1=O)S2
5,> 95 µM (inactive),Cc1onc(-c2ccc(Cl)cc2Cl)c1-c1csc(COc2ccccc2)n1
6,> 95 µM (inactive),O=C(O)CCSc1nnc(COc2cccc3cccnc23)n1-c1ccccc1
7,> 95 µM (inactive),Cc1cc(C)cc(N(CCC(=O)O)S(=O)(=O)c2ccc3ccccc3c2)c1
8,> 95 µM (inactive),Cc1ccc(Nc2c(-c3ccccc3O)nc3ncccn23)cc1
9,> 95 µM (inactive),CC(C)c1ccc(S(=O)(=O)N2CCN(C(=O)CN3C(=O)c4ccccc4C3=O)CC2)cc1
10,> 95 µM (inactive),O=C(CCn1c(=O)c2cccn2c2cccnc21)NCc1cccc(Cl)c1
11,> 95 µM (inactive),O=C(COC(=O)C1CC(=O)N(Cc2ccccc2)C1)Nc1ccccc1F (stereo not given)
12,> 95 µM (inactive),CCOC(=O)c1ccc(N2CCN(C(=O)c3ccccc3)CC2)c(NC(=O)c2ccco2)c1

# Further lines, the molecule ahead of its results:
row,Structure (SMILES),IC50
1,COC(=O)C[C@H]1c2cc(F)ccc2S(=O)(=O)N1C(C)C,> 95 µM (inactive)
2,CC(=O)N1CCSc2ccc(S(=O)(=O)Nc3ccc(C)cc3)cc21,> 95 µM (inactive)
3,CCOC(=O)c1ccc2[nH]c(C)c(C)c2c1,> 95 µM (inactive)
4,Cc1ccc2c(c1)C(c1ccncc1)=NNC(c1ccc(F)cc1)=N2,> 95 µM (inactive)
5,COc1ccc(-c2noc(CN(C(=O)c3ccc4c(c3)OCO4)C(C)C)n2)cc1,> 95 µM (inactive)
6,CCOC(=O)c1c(=O)n(O)c2ccc(OC)cc2[n+]1[O-],> 95 µM (inactive)
7,O=C1CCCN1CCCNC(=S)Nc1ccc(Cl)cc1Cl,> 95 µM (inactive)
8,Nc1ccc(C(=O)Nc2ccc(Nc3ccncc3)cc2)c([N+](=O)[O-])c1,> 95 µM (inactive)
9,OCC[C@H]1C[C@H](O)[C@@H](O)[C@]2(CCCCO2)O1,> 95 µM (inactive)
10,Cc1ccc(C(=O)N2CCN(C34CC5CC(CC(C5)C3)C4)CC2)o1,> 95 µM (inactive)
11,OCC1OC(n2cnc3c(/C=C(\O)c4ccccc4)ncnc32)C(O)C1O (stereo not given),> 95 µM (inactive)

# Reference: PubChem BioAssay AID651650 (Sanford-Burnham Center for Chemical Genomics, 2012)
